Reference: patent US12310969B2, “Antithrombotic compositions and methods for using same” (UNIVERSITY OF NORTH TEXAS, priority 2021, dated 2025)

Columns and labels:
zebrafish larvae = assay: Laser-induced venous thrombosis, time to occlusion (TTO) of the caudal vein; format: in vivo; details: 5 dpf larvae, 2 hours
Procedure: (§1) UNC6852 (MedChem Express, Monmouth Junction, NJ), in 10% DMSO in saline were prepared at four different concentrations (0.075 mM, 0.15 mM, 0.3 mM and 0.6 mM). Eight nl of each of these solutions was injected into the 5 dpf larvae and incubated for 2 hours. For controls, 10% DMSO in saline was injected. For adult fish injections, 5 μl of 0.6 mM UNC6852 was injected intravenously and incubated for 6 hours.
For laser-induced venous thrombosis, 5 dpf larvae were transferred into a 1.5 ml Eppendorf tube containing 0.5 ml E3 medium followed by the addition of 10 μl of 10 mM MS222. After 2 minutes of anesthesia, 0.5 ml of 1.6% low melting agarose at 37° C. was added to the Eppendorf tube, and the contents were mixed gently by pipetting up and down using a transfer pipette. […] The slide with the larvae was focused with a 20× objective of the Nikon OPTIPHOT™ fluorescence microscope. The pulsed nitrogen laser with a wavelength of 445 nm, routed through the coumarin-440 dye (Micro Point Laser, Stanford Research Systems Inc., Sunnyvale, CA), was delivered at 10 hits per cycle through the fluorescence port to hit the mid-region in the caudal vein located in the 5th somite posterior to the anal pore.^22 TTO of the vessel was measured as the time taken to occlude the vessel from the time the laser hits the vessel until the vessel completely occludes.

tfpia mRNA = assay: qRT-PCR of tfpia gene expression in liver and spleen of adult zebrafish; format: in vivo; details: adult fish, 5 μl of 0.6 mM injected intravenously, 6 hours post-injection, vs wild-type control
Procedure: as §1
Adult zebrafish were first anesthetized using 1 mM Tricaine in E3 medium. After 2 minutes, once the zebrafish flips on its side, it was removed from the medium, and an incision was made in the ventral surface from the anal pore up to the gills using a pair of scissors. The visible liver and spleen were retrieved using a pair of forceps. […]
To 1 μl of the liver and spleen RNA (1 μg/μl), 4 μl of QSCRIPT™ (gScript™) cDNA SUPERMIX™ (Quanta Bio, Beverly, MA) and 15 μl of nuclease-free water were added. […] The ΔCt values for WT samples were calculated as a difference between Ct values of β-actin and tfpia. The average ΔCt value for WT was then calculated. […] Similarly, in the knockdown samples, from each ΔCt value, the average ΔCt value of the WT was subtracted, and the resulting ΔΔCt value was calculated, followed by the calculation of fold change.

Cc1ncsc1-c1ccc(CNC(=O)[C@@H]2C[C@@H](O)CN2C(=O)[C@@H](NC(=O)CCCNC(=O)c2ccc(-c3cnc(NCc4ccco4)n4cnnc34)cc2)C(C)(C)C)cc1 [UNC6852]
time to occlusion (TTO) of the caudal vein after laser injury (zebrafish larvae; 8 nl injected intravenously at 0.075, 0.15, 0.3 and 0.6 mM, compared to control larvae (10% DMSO in saline)): dose-dependent prolongation of TTO | concentration giving maximal prolongation of TTO (zebrafish larvae; 8 nl injected intravenously, 4 concentrations tested (0.075-0.6 mM)): 0.6 mM | tfpia mRNA levels (fold change of tfpia gene expression in liver and spleen) (tfpia mRNA): increased tfpia mRNA levels
